# Key:
# Format in all cases: functional
# NCI-H23 = assay: Anticancer activity against human NCI-H23 cells assessed cell growth at 10 uM after 48 hrs by sulforhodamine B assay relative to control
# U-251 = assay: Anticancer activity against human U251 cells assessed cell growth at 10 uM after 48 hrs by sulforhodamine B assay relative to control
# HOP-62 = assay: Anticancer activity against human HOP62 cells assessed cell growth at 10 uM after 48 hrs by sulforhodamine B assay relative to control
# CAKI-1 = assay: Anticancer activity against human Caki1 cells assessed cell growth at 10 uM after 48 hrs by sulforhodamine B assay relative to control
# MDA-MB-231 = assay: Anticancer activity against human MDA-MB-231 cells assessed cell growth at 10 uM after 48 hrs by sulforhodamine B assay relative to control
# PC-3 = assay: Anticancer activity against human PC3 cells assessed cell growth at 10 uM after 48 hrs by sulforhodamine B assay relative to control
# SK-MEL-2 = assay: Anticancer activity against human SK-MEL-2 cells assessed cell growth at 10 uM after 48 hrs by sulforhodamine B assay relative to control
# DU-145 = assay: Anticancer activity against human DU145 cells assessed cell growth at 10 uM after 48 hrs by sulforhodamine B assay relative to control
# SF-295 = assay: Anticancer activity against human SF295 cells assessed cell growth at 10 uM after 48 hrs by sulforhodamine B assay relative to control
# SK-MEL-28 = assay: Anticancer activity against human SK-MEL-28 cells assessed cell growth at 10 uM after 48 hrs by sulforhodamine B assay relative to control
# SF-268 = assay: Anticancer activity against human SF268 cells assessed cell growth at 10 uM after 48 hrs by sulforhodamine B assay relative to control
# [1] = Anticancer activity against human RPMI8266 cells assessed cell growth at 10 uM after 48 hrs by sulforhodamine B assay relative to control
# TK-10 = assay: Anticancer activity against human TK10 cells assessed cell growth at 10 uM after 48 hrs by sulforhodamine B assay relative to control
# OVCAR-8 = assay: Anticancer activity against human OVCAR8 cells assessed cell growth at 10 uM after 48 hrs by sulforhodamine B assay relative to control
# SF-539 = assay: Anticancer activity against human SF539 cells assessed cell growth at 10 uM after 48 hrs by sulforhodamine B assay relative to control
# NCI-H522 = assay: Anticancer activity against human NCI-H522 cells assessed cell growth at 10 uM after 48 hrs by sulforhodamine B assay relative to control
# HOP-92 = assay: Anticancer activity against human HOP92 cells assessed cell growth at 10 uM after 48 hrs by sulforhodamine B assay relative to control
# RXF 393 = assay: Anticancer activity against human RXF393 cells assessed cell growth at 10 uM after 48 hrs by sulforhodamine B assay relative to control
# SW-620 = assay: Anticancer activity against human SW620 cells assessed cell growth at 10 uM after 48 hrs by sulforhodamine B assay relative to control
# ACHN = assay: Anticancer activity against human ACHN cells assessed cell growth at 10 uM after 48 hrs by sulforhodamine B assay relative to control
# HCT-15 = assay: Anticancer activity against human HCT15 cells assessed cell growth at 10 uM after 48 hrs by sulforhodamine B assay relative to control
# HL-60(TB) = assay: Anticancer activity against human HL-60(TB) cells assessed cell growth at 10 uM after 48 hrs by sulforhodamine B assay relative to control
# IGROV-1 = assay: Anticancer activity against human IGROV1 cells assessed cell growth at 10 uM after 48 hrs by sulforhodamine B assay relative to control
# MDA-MB-468 = assay: Anticancer activity against human MDA-MB-468 cells assessed cell growth at 10 uM after 48 hrs by sulforhodamine B assay relative to control
# SK-OV-3 = assay: Anticancer activity against human SKOV3 cells assessed cell growth at 10 uM after 48 hrs by sulforhodamine B assay relative to control
# BT-549 = assay: Anticancer activity against human BT549 cells assessed cell growth at 10 uM after 48 hrs by sulforhodamine B assay relative to control
# UO-31 = assay: Anticancer activity against human UO31 cells assessed cell growth at 10 uM after 48 hrs by sulforhodamine B assay relative to control
# SNB-75 = assay: Anticancer activity against human SNB75 cells assessed cell growth at 10 uM after 48 hrs by sulforhodamine B assay relative to control
# SNB-19 = assay: Anticancer activity against human SNB19 cells assessed cell growth at 10 uM after 48 hrs by sulforhodamine B assay relative to control
# OVCAR-4 = assay: Anticancer activity against human OVCAR4 cells assessed cell growth at 10 uM after 48 hrs by sulforhodamine B assay relative to control
# LOX IMVI = assay: Anticancer activity against human LOXIMVI cells assessed cell growth at 10 uM after 48 hrs by sulforhodamine B assay relative to control
# KM12 = assay: Anticancer activity against human KM12 cells assessed cell growth at 10 uM after 48 hrs by sulforhodamine B assay relative to control
# CCRF-CEM = assay: Anticancer activity against human CCRF-CEM cells assessed cell growth at 10 uM after 48 hrs by sulforhodamine B assay relative to control
# NCI-H460 = assay: Anticancer activity against human NCI-H460 cells assessed cell growth at 10 uM after 48 hrs by sulforhodamine B assay relative to control
# SN12C = assay: Anticancer activity against human SN12C cells assessed cell growth at 10 uM after 48 hrs by sulforhodamine B assay relative to control
# Malme-3M = assay: Anticancer activity against human MALME-3M cells assessed cell growth at 10 uM after 48 hrs by sulforhodamine B assay relative to control
# OVCAR-5 = assay: Anticancer activity against human OVCAR5 cells assessed cell growth at 10 uM after 48 hrs by sulforhodamine B assay relative to control
# HCT-116 = assay: Anticancer activity against human HCT116 cells assessed cell growth at 10 uM after 48 hrs by sulforhodamine B assay relative to control
# NCI-H322M = assay: Anticancer activity against human NCI-H322M cells assessed cell growth at 10 uM after 48 hrs by sulforhodamine B assay relative to control
# UACC-257 = assay: Anticancer activity against human UACC257 cells assessed cell growth at 10 uM after 48 hrs by sulforhodamine B assay relative to control
# MCF7 = assay: Anticancer activity against human MCF7 cells assessed cell growth at 10 uM after 48 hrs by sulforhodamine B assay relative to control
# MDA-MB-435 = assay: Anticancer activity against human MDA-MB-435 cells assessed cell growth at 10 uM after 48 hrs by sulforhodamine B assay relative to control
# T47D = assay: Anticancer activity against human T47D cells assessed cell growth at 10 uM after 48 hrs by sulforhodamine B assay relative to control
structure (smiles),measurement,setting,value
CCCCCC[n+]1ccn(C)c1.O=S(=O)([N-]S(=O)(=O)C(F)(F)F)C(F)(F)F,Activity,NCI-H23,89.09%
same,Activity,U-251,96.82%
same,Activity,HOP-62,89.75%
same,Activity,CAKI-1,66.14%
same,Activity,MDA-MB-231,86.26%
same,Activity,PC-3,105.34%
same,Activity,SK-MEL-2,102.62%
same,Activity,DU-145,117.36%
same,Activity,SF-295,101.37%
same,Activity,SK-MEL-28,135.26%
same,Activity,SF-268,109.15%
same,Activity,[1],125.38%
same,Activity,TK-10,124.14%
same,Activity,OVCAR-8,84.83%
same,Activity,SF-539,75.4%
same,Activity,NCI-H522,81.74%
same,Activity,HOP-92,114.14%
same,Activity,RXF 393,103.51%
same,Activity,SW-620,99.75%
same,Activity,ACHN,88.98%
same,Activity,HCT-15,105.5%
same,Activity,HL-60(TB),112.14%
same,Activity,IGROV-1,85.47%
same,Activity,MDA-MB-468,80.22%
same,Activity,SK-OV-3,95.29%
same,Activity,BT-549,119.52%
same,Activity,UO-31,84.29%
same,Activity,SNB-75,94.84%
same,Activity,SNB-19,95.37%
same,Activity,OVCAR-4,82.57%
same,Activity,LOX IMVI,92.45%
same,Activity,KM12,100.77%
same,Activity,CCRF-CEM,121.99%
same,Activity,NCI-H460,90.77%
same,Activity,SN12C,90.25%
same,Activity,Malme-3M,102.07%
same,Activity,OVCAR-5,105.87%
same,Activity,HCT-116,80.77%
same,Activity,NCI-H322M,113.78%
same,Activity,UACC-257,87.47%
same,Activity,MCF7,106.75%
same,Activity,MDA-MB-435,93.37%
CCCCCC[n+]1ccn(C)c1.FC(F)(F)C(F)(F)[P-](F)(F)(F)(C(F)(F)C(F)(F)F)C(F)(F)C(F)(F)F,Activity,NCI-H23,45.51%
same,Activity,U-251,78.65%
same,Activity,HOP-62,88.12%
same,Activity,CAKI-1,53.43%
same,Activity,MDA-MB-231,73.1%
same,Activity,PC-3,86.43%
same,Activity,SK-MEL-2,47.53%
same,Activity,DU-145,107.66%
same,Activity,T47D,55.53%
same,Activity,SF-295,70.02%
same,Activity,SK-MEL-28,100.39%
same,Activity,SF-268,103.36%
same,Activity,[1],53.67%
same,Activity,TK-10,67.04%
same,Activity,OVCAR-8,60.84%
same,Activity,SF-539,75.55%
same,Activity,NCI-H522,58.3%
same,Activity,HOP-92,85.4%
same,Activity,RXF 393,92.19%
same,Activity,SW-620,80.17%
same,Activity,ACHN,54.23%
same,Activity,HCT-15,91.62%
same,Activity,HL-60(TB),96.2%
same,Activity,IGROV-1,78.12%
same,Activity,MDA-MB-468,39.66%
same,Activity,SK-OV-3,85.24%
same,Activity,BT-549,54.78%
same,Activity,UO-31,71.06%
same,Activity,SNB-75,88.07%
same,Activity,SNB-19,82.22%
same,Activity,OVCAR-4,59.66%
same,Activity,LOX IMVI,59.38%
same,Activity,KM12,91.54%
same,Activity,CCRF-CEM,65.92%
same,Activity,NCI-H460,51.46%
same,Activity,SN12C,87.26%
same,Activity,Malme-3M,102.23%
same,Activity,OVCAR-5,105.17%
same,Activity,HCT-116,32.03%
same,Activity,NCI-H322M,77.95%
same,Activity,UACC-257,34.16%
same,Activity,MCF7,62.49%
same,Activity,MDA-MB-435,51.22%
Cn1cc[n+](CCO)c1.O=S(=O)([N-]S(=O)(=O)C(F)(F)F)C(F)(F)F,Activity,NCI-H23,93.17%
same,Activity,U-251,91.58%
same,Activity,HOP-62,90.22%
same,Activity,CAKI-1,90.82%
same,Activity,MDA-MB-231,104.59%
same,Activity,PC-3,86.93%
same,Activity,SK-MEL-2,97.37%
same,Activity,DU-145,114.39%
same,Activity,T47D,100.5%
same,Activity,SF-295,128.56%
same,Activity,SK-MEL-28,125.37%
same,Activity,SF-268,104.78%
same,Activity,[1],72.12%
same,Activity,TK-10,125.47%
same,Activity,OVCAR-8,93.89%
same,Activity,SF-539,99.95%
same,Activity,NCI-H522,90.32%
same,Activity,HOP-92,74.53%
same,Activity,RXF 393,95.99%
same,Activity,SW-620,103.41%
same,Activity,ACHN,97.02%
same,Activity,HCT-15,90.93%
same,Activity,HL-60(TB),37.14%
same,Activity,IGROV-1,89%
same,Activity,MDA-MB-468,108.29%
same,Activity,SK-OV-3,102.56%
same,Activity,BT-549,114.11%
same,Activity,UO-31,80.89%
same,Activity,SNB-75,79.94%
same,Activity,SNB-19,93.36%
same,Activity,OVCAR-4,100.13%
same,Activity,LOX IMVI,90.65%
same,Activity,KM12,107.33%
same,Activity,CCRF-CEM,72.37%
same,Activity,NCI-H460,114.83%
same,Activity,SN12C,96.7%
same,Activity,Malme-3M,121.81%
same,Activity,HCT-116,100.02%
same,Activity,NCI-H322M,94.56%
same,Activity,UACC-257,93.35%
same,Activity,MCF7,105.11%
same,Activity,MDA-MB-435,116.12%
CCCCCCCCCCCC[n+]1ccn(C)c1.[Cl-],Activity,NCI-H23,28.79%
same,Activity,U-251,21.74%
same,Activity,HOP-62,38.17%
same,Activity,CAKI-1,28.77%
same,Activity,MDA-MB-231,41.54%
same,Activity,PC-3,75.39%
same,Activity,SK-MEL-2,13.06%
same,Activity,DU-145,6.6%
same,Activity,T47D,24.65%
same,Activity,SF-295,9.99%
same,Activity,SK-MEL-28,34.86%
same,Activity,SF-268,58.74%
same,Activity,[1],116.34%
same,Activity,TK-10,-1.53%
same,Activity,OVCAR-8,11.53%
same,Activity,SF-539,30.45%
same,Activity,NCI-H522,-19.92%
same,Activity,HOP-92,51.88%
same,Activity,RXF 393,-20.81%
same,Activity,SW-620,44.11%
same,Activity,ACHN,45.02%
same,Activity,HCT-15,82.04%
same,Activity,HL-60(TB),51.9%
same,Activity,MDA-MB-468,-42.1%
same,Activity,SK-OV-3,44.54%
same,Activity,UO-31,65.71%
same,Activity,SNB-75,-10.6%
same,Activity,SNB-19,45.54%
same,Activity,OVCAR-4,22.69%
same,Activity,LOX IMVI,23.94%
same,Activity,KM12,14.03%
same,Activity,CCRF-CEM,110.51%
same,Activity,NCI-H460,23.64%
same,Activity,SN12C,19.36%
same,Activity,Malme-3M,24.55%
same,Activity,OVCAR-5,45.62%
same,Activity,HCT-116,17.62%
same,Activity,NCI-H322M,57.06%
same,Activity,UACC-257,-12.38%
same,Activity,MCF7,3.94%
same,Activity,MDA-MB-435,7.98%
